Results: patent publication US5817840A, “Water soluble taxol derivatives” (The Scripps Research Institute, priority 1997, dated 1998)
pIC50: −log10 of the molar value. Read-outs that look alike come from different tables or passages of the source.

Tests used:
[1] = test system: W1-38 (normal human diploid lung); test: Cytotoxicity, Example 8; type: cell-based
Procedure: (§1) Tumor or normal cells were cultured in 96-well plates with the test compound in 200 μl of RPMI supplemented with 10% fetal bovine serum (Hyclone, Salt Lake City, Utah) at 37° C. in a humidified atmosphere containing 5% CO2 in air for 72 hours. Sulforhodamine B dissolved in 1% acetic acid was added, and the plates were incubated for 30 minutes at ambient temperature, washed with 1% acetic acid, and blotted. To the air-dried plates were added 100 μl of […] unbuffered TRIS base (pH 10.5) with shaking. The optical densities of the plates were measured with a microplate reader (Molecular Devices Thermomax) at 540 nm. The concentration of compound required to reduce the absorbance to 50% of control samples was recorded as IC50.
(§2) NHDF: Normal human dermal fibroblast (available from Clouelics Corp., San Diego, Calif.); HLF-1: Normal human diploid lung; W1-38; Normal human diploid lung; CHO; Chinese hamster ovary; SK-MEL-28: Melanoma; CAPAN-1: Pancreatic carcinoma; H322: lung carcinoma; MCF-7; Breast carcinoma; BT-549; Human breast ductal carcinoma; OVCAR-3: Human ovarian carcinoma; HT-29: Human adenocarcinoma, colon; SIHA: Human squamous carcinoma crvx; 786-0: Human perirenal cell adenocarci; PC-3: Human prostate adenocarcinoma; HL-60: Human promyelomic leukemia; MOLT-4: Human T-cell leukemia. All cell lines except NHDF are available from the American Tissue Culture Collection, Rockville, Md.

[2] = test system: HLF-1 (normal human diploid lung); test: Cytotoxicity, Example 8; type: cell-based
Procedure: as §1, §2

MCF-7 (breast carcinoma) [3] = test: Cytotoxicity, Example 8; type: cell-based; conditions: Homo sapiens
Procedure: as §1, §2

[4] = test system: NHDF (normal human dermal fibroblast); test: Cytotoxicity, Example 8; type: cell-based
Procedure: as §1, §2

[5] = test system: CHO (Chinese hamster ovary); test: Cytotoxicity, Example 8; type: cell-based; conditions: Cricetulus griseus
Procedure: as §1, §2

[6] = test system: S1HA (human squamous carcinoma crvx); test: Cytotoxicity, Example 8; type: cell-based
Procedure: as §1, §2

SK-MEL-28 (melanoma) = test: Cytotoxicity, Example 8; type: cell-based; conditions: Homo sapiens
Procedure: as §1, §2

[7] = test system: HT-29 (human adenocarcinoma, colon); test: Cytotoxicity, Example 8; type: cell-based
Procedure: as §1, §2

[8] = test system: 786-0 (human perirenal cell adenocarci); test: Cytotoxicity, Example 8; type: cell-based
Procedure: as §1, §2

[9] = test system: PC-3 (human prostate adenocarcinoma); test: Cytotoxicity, Example 8; type: cell-based
Procedure: as §1, §2

[10] = test system: BT-549 (human breast ductal carcinoma); test: Cytotoxicity, Example 8; type: cell-based
Procedure: as §1, §2

[11] = test system: CAPAN-1 (pancreatic carcinoma); test: Cytotoxicity, Example 8; type: cell-based; conditions: Homo sapiens
Procedure: as §1, §2

H322 (lung carcinoma) [12] = test: Cytotoxicity, Example 8; type: cell-based
Procedure: as §1, §2

[13] = test system: OVCAR-3 (human ovarian carcinoma); test: Cytotoxicity, Example 8; type: cell-based
Procedure: as §1, §2

[14] = test system: CHO (normal human mammary); test: Cytotoxicity (sulphorhodamine B), normal cell line, Table 1B; type: cell-based; conditions: Homo sapiens, 72 h
[15] = test system: MOLT-4 (T-cell leukaemia); test: Cytotoxicity (sulphorhodamine B), cancer cell line, Table 1B; type: cell-based; conditions: Homo sapiens, MOLT-4, 72 h
MCF-7 (breast carcinoma) [16] = test: as above; type: cell-based; conditions: Homo sapiens, MCF7, 72 h
[17] = test system: RPMI-7666 (normal human PBLs); test: Cytotoxicity (sulphorhodamine B), normal cell line, Table 1B; type: cell-based; conditions: 72 h
[18] = test system: broad spectrum of cell lines; test: Cytotoxicity against a broad spectrum of cell lines (overall); conditions: three-day exposure; compared with taxol
Procedure: The protaxols synthesized in this study were tested against a broad spectrum of cell lines ranging from the multiple-drug resistant ovarian (OVCAR-3) to lung (H-322) and leukemia (MOLT-4) cells in order to assess cytotoxicity, cell-type selectivity, and duration of action.
The cytotoxicities were determined using the sulphorhodamine B assay method (Skehan, P. et al. J. Nat. Canc. Inst. 82, 1107 (1990)).

SK (melanoma) = test: Cytotoxicity (sulphorhodamine B), cancer cell line, Table 1B; type: cell-based; conditions: 72 h
HT-29 (colon carcinoma) = test: as above; type: cell-based; conditions: Homo sapiens, HT-29, 72 h
[19] = test system: 786-0 (renal cell carcinoma); test: as above; type: cell-based; conditions: Homo sapiens, 786-0, 72 h
[20] = test system: PC-3 (prostate carcinoma); test: as above; type: cell-based; conditions: Homo sapiens, 72 h
[21] = test system: CHO (Chinese hamster ovary); test: Cytotoxicity (sulphorhodamine B), normal cell line, Table 1B; type: cell-based; conditions: Cricetulus griseus, 72 h
NHDF (normal human skin) = test: as above; type: cell-based; conditions: 72 h
H322 (lung carcinoma) [22] = test: Cytotoxicity (sulphorhodamine B), cancer cell line, Table 1B; type: cell-based; conditions: NCI-H322, 72 h
[23] = test system: UCLA-P-3 (lung carcinoma); test: as above; type: cell-based; conditions: Homo sapiens, UCLA P-3, 72 h
[24] = test system: OVCAR-3 (ovarian carcinoma); test: as above; type: cell-based; conditions: Homo sapiens, OVCAR-3, 72 h
L1210 (mouse leukaemia) = test: as above; type: cell-based; conditions: L1210, 72 h
[25] = test system: HL-60 (promyel carcinoma); test: as above; type: cell-based; conditions: Homo sapiens, HL-60, 72 h
[26] = test system: BT-549 (breast carcinoma); test: as above; type: cell-based; conditions: Homo sapiens, BT-549, 72 h
Capan-1 (pancreatic) = test: as above; type: cell-based; conditions: Homo sapiens, CAPAN-1, 72 h
SIHA (cervix carcinoma) = test: as above; type: cell-based; conditions: Homo sapiens, SiHa, 72 h
[27] = test system: BALB/c 3T3 (normal mouse embryo); test: Cytotoxicity (sulphorhodamine B), normal cell line, Table 1B; type: cell-based; conditions: BALB/c3T3, 72 h

SMILES: CC(=O)O[C@H]1C(=O)[C@@]2(C)[C@H]([C@H](OC(=O)c3ccccc3)[C@]3(O)C[C@H](OC(=O)[C@H](OC(=O)COCC(=O)O)[C@@H](NC(=O)c4ccccc4)c4ccccc4)C(C)=C1C3(C)C)[C@]1(OC(C)=O)CO[C@@H]1C[C@@H]2O [Compound 3]
- pIC50 ([1]; W138, 72 h): 4.28
- pIC50 ([2]; HLF1, 72 h): 4.23
- pIC50 (MCF-7 (breast carcinoma) [3]; MCF7, 72 h): 3.45
- pIC50 ([4]; 72 h): 3.99
- pIC50 ([5]; 72 h): 4.00
- pIC50 ([6]; 72 h): 2.95
- pIC50 (SK-MEL-28 (melanoma); SK-MEL-28, 72 h): 4.00
- pIC50 ([7]; HT-29, 72 h): 8.00
- pIC50 ([8]; 786-0, 72 h): 6.82
- pIC50 ([9]; 72 h): 4.19
- pIC50 ([10]; BT-549, 72 h): 4.29
- pIC50 ([11]; CAPAN-1, 72 h): 7.01
- pIC50 (H322 (lung carcinoma) [12]; NCI-H322, 72 h): 3.69
- pIC50 ([13]; OVCAR-3, 72 h): 7.01

SMILES: CC(=O)O[C@H]1C(=O)[C@@]2(C)[C@H]([C@H](OC(=O)c3ccccc3)[C@]3(O)C[C@H](OC(=O)[C@H](OC(=O)CSCC(=O)O)[C@@H](NC(=O)c4ccccc4)c4ccccc4)C(C)=C1C3(C)C)[C@]1(OC(C)=O)CO[C@@H]1C[C@@H]2O [Compound 4, 2'-thiodiglycolic taxol]
- pIC50 ([1]; W138, 72 h): 4.89
- pIC50 ([2]; HLF1, 72 h): 5.51
- pIC50 (MCF-7 (breast carcinoma) [3]; MCF7, 72 h): 4.00
- pIC50 ([4]; 72 h): 4.30
- pIC50 ([5]; 72 h): 4.30
- pIC50 ([6]; 72 h): 4.30
- pIC50 (SK-MEL-28 (melanoma); SK-MEL-28, 72 h): 4.00
- pIC50 ([7]; HT-29, 72 h): 6.72
- pIC50 ([8]; 786-0, 72 h): 5.20
- pIC50 ([9]; 72 h): 4.00
- pIC50 ([10]; BT-549, 72 h): 4.80
- pIC50 ([11]; CAPAN-1, 72 h): 6.72
- pIC50 (H322 (lung carcinoma) [12]; NCI-H322, 72 h): 5.51
- pIC50 ([13]; OVCAR-3, 72 h): 6.41

SMILES: COC(=O)CS(=O)(=O)CC(=O)O[C@@H](C(=O)O[C@H]1C[C@@]2(O)[C@@H](OC(=O)c3ccccc3)[C@@H]3[C@]4(OC(C)=O)CO[C@@H]4C[C@H](O)[C@@]3(C)C(=O)[C@H](OC(C)=O)C(=C1C)C2(C)C)[C@@H](NC(=O)c1ccccc1)c1ccccc1 [Compound 6]
- pIC50 [14]: 4.00
- pIC50 [15]: 7.00
- pIC50 (MCF-7 (breast carcinoma) [16]): 5.00
- pIC50 [17]: 4.00
- cytotoxicity (in words) [18]: lower cytotoxicities
- pIC50 (SK (melanoma)): 5.00
- pIC50 (HT-29 (colon carcinoma)): 7.00
- pIC50 [19]: 5.00
- pIC50 [20]: 6.00
- pIC50 [21]: 4.00
- pIC50 (NHDF (normal human skin)): 6.00
- pIC50 (H322 (lung carcinoma) [22]): 7.00
- pIC50 [23]: > 9.00
- pIC50 [24]: 6.00
- pIC50 (L1210 (mouse leukaemia)): 5.00
- pIC50 [25]: 7.00
- pIC50 [26]: 9.00
- pIC50 (Capan-1 (pancreatic)): 7.00
- pIC50 (SIHA (cervix carcinoma)): 4.00
- pIC50 [27]: 5.00

SMILES: CC(=O)O[C@H]1C(=O)[C@@]2(C)[C@H]([C@H](OC(=O)c3ccccc3)[C@]3(O)C[C@H](OC(=O)[C@H](OC(=O)OCCS(=O)(=O)c4ccc([N+](=O)[O-])cc4)[C@@H](NC(=O)c4ccccc4)c4ccccc4)C(C)=C1C3(C)C)[C@]1(OC(C)=O)CO[C@@H]1C[C@@H]2O [Compound 9]
- pIC50 [14]: 4.00
- pIC50 [15]: 9.00
- pIC50 (MCF-7 (breast carcinoma) [16]): 5.00
- pIC50 [17]: 4.00
- cytotoxicity (in words) [18]: lower cytotoxicities
- pIC50 (SK (melanoma)): 5.00
- pIC50 (HT-29 (colon carcinoma)): 7.00
- pIC50 [19]: 6.00
- pIC50 [20]: 6.00
- pIC50 [21]: 4.00
- pIC50 (NHDF (normal human skin)): 6.00
- pIC50 (H322 (lung carcinoma) [22]): 6.00
- pIC50 [23]: > 9.00
- pIC50 [24]: 6.00
- pIC50 (L1210 (mouse leukaemia)): 6.00
- pIC50 [25]: 7.00
- pIC50 [26]: 7.00
- pIC50 (Capan-1 (pancreatic)): 6.00
- pIC50 (SIHA (cervix carcinoma)): 5.00
- pIC50 [27]: 5.00

SMILES: CC(=O)O[C@H]1C(=O)[C@@]2(C)[C@H]([C@H](OC(=O)c3ccccc3)[C@]3(O)C[C@H](OC(=O)[C@H](OC(=O)OCCS(=O)(=O)c4ccc(N)cc4)[C@@H](NC(=O)c4ccccc4)c4ccccc4)C(C)=C1C3(C)C)[C@]1(OC(C)=O)CO[C@@H]1C[C@@H]2O [Compound 10]
- pIC50 [14]: 4.00
- pIC50 [15]: > 9.00
- pIC50 (MCF-7 (breast carcinoma) [16]): 5.00
- pIC50 [17]: 4.00
- pIC50 (SK (melanoma)): 5.00
- pIC50 (HT-29 (colon carcinoma)): > 9.00
- pIC50 [19]: 6.00
- pIC50 [20]: 6.00
- pIC50 [21]: 4.00
- pIC50 (NHDF (normal human skin)): 6.00
- pIC50 (H322 (lung carcinoma) [22]): 8.00
- pIC50 [23]: > 9.00
- pIC50 [24]: > 9.00
- pIC50 (L1210 (mouse leukaemia)): 5.00
- pIC50 [25]: > 9.00
- pIC50 [26]: 7.00
- pIC50 (Capan-1 (pancreatic)): > 9.00
- pIC50 (SIHA (cervix carcinoma)): 5.00
- pIC50 [27]: 5.00

SMILES: CC(=O)O[C@H]1C(=O)[C@@]2(C)[C@H]([C@H](OC(=O)c3ccccc3)[C@]3(O)C[C@H](OC(=O)[C@H](OC(=O)C[S+]([O-])CC(=O)O)[C@@H](NC(=O)c4ccccc4)c4ccccc4)C(C)=C1C3(C)C)[C@]1(OC(C)=O)CO[C@@H]1C[C@@H]2O (some centres unmarked) [Example 3a]
- pIC50 ([1]; W138, W1-38, 72 hours, read-out: IC50): 4.60
- pIC50 ([2]; HLF1, HLF-1, 72 hours, read-out: IC50): 4.60
- pIC50 (MCF-7 (breast carcinoma) [3]; MCF7, MCF-7, 72 hours, read-out: IC50): 4.41
- pIC50 ([4]; 72 hours, read-out: IC50): 4.30
- pIC50 ([5]; CHO, 72 hours, read-out: IC50): 4.00
- pIC50 ([6]; S1HA, 72 hours, read-out: IC50): 4.60
- pIC50 (SK-MEL-28 (melanoma); SK-MEL-28, 72 hours, read-out: IC50): 4.00
- pIC50 ([7]; HT-29, 72 hours, read-out: IC50): 7.01
- pIC50 ([8]; 786-0, 72 hours, read-out: IC50): 6.82
- pIC50 ([9]; PC-3, 72 hours, read-out: IC50): 4.30
- pIC50 ([10]; BT-549, 72 hours, read-out: IC50): 7.01
- pIC50 ([11]; Capan-1, 72 hours, read-out: IC50): 6.06
- pIC50 (H322 (lung carcinoma) [12]; NCI-H322, H322, 72 hours, read-out: IC50): 5.08
- pIC50 ([13]; OVCAR-3, 72 hours, read-out: IC50): 7.01
